The values below come from ChEMBL document CHEMBL5120896, “Hydroanthraquinones from Nigrospora sphaerica and Their Anti-inflammatory Activity Uncovered by Transcriptome Analysis” (J Nat Prod, 2022).

For data set [1], the system named is RAW264.7. In words: Cytotoxicity against mouse RAW264.7 cells assessed as reduction in cell viability at 80 uM incubated for 24 hrs by MTT assay. Format: toxicity, cell-based. The following applies: raw264.7, 24 h. For orientation: Tetrazolium assays rely on reduction of a dye to a coloured formazan, in cell work by metabolically active cells.
Data set [2] deals with RAW264.7. The experiment in a line: Anti-inflammatory activity against mouse RAW264.7 cells assessed as inhibition of LPS-induced NO production at 60 uM pretreated for 1 hr followed by incubation with LPS and measured after 24 hrs by Griess reagent based analysis. It is filed as functional, cell-based. The following applies: time 25.0 hrs. Background: The Griess reaction detects nitrite, a stable product of nitric oxide.

Another data set has as its system SW-620. The experiment in a line: Cytotoxicity against human SW-620 cells assessed as reduction in metabolically active cells by MTT assay. It is filed as functional, cell-based.
Another data set is filed under the species Danio rerio. In words: Anti-inflammatory activity against Zebra fish embryo assessed as inhibition of LPS-induced ROS production at 5 uM pretreated with LPS followed by incubation with drug by fluorescence microscopy. It is filed as functional, organism-based.
For data set [3], the system named is RAW264.7. In words: Anti-inflammatory activity against mouse RAW264.7 cells assessed as inhibition of LPS-induced ROS production at 10 to 40 uM pretreated for 1 hr followed by incubation with LPS for 24 hrs by DCFH-DA staining based fluorescence microscopy. Format: functional, cell-based. The following applies: dose 10-40 µM, time 25.0 hrs.
Data set [4] relates to RAW264.7. The experiment in a line: Anti-inflammatory activity against LPS-activated mouse RAW264.7 cells assessed as reduction of TNF-alpha gene expression at 7.5 to 30 uM pretreated for 1 hr followed by incubation with LPS for 24 hrs by qRT-PCR analysis. Format: functional, cell-based. The following applies: dose 7.5-30 µM, time 25.0 hrs.
Data set [5] relates to RAW264.7. In words: Downregulation of phospho-IKKalpha/beta expression in LPS-activated mouse RAW264.7 cells at 7.5 to 30 uM pretreated for 1 hr followed by incubation with LPS for 24 hrs by western blot analysis. It is filed as functional, cell-based. Conditions: dose 7.5-30 µM, time 25.0 hrs. In general terms: Immunoblotting shows a protein as a band on a membrane.
For data set [6], the system named is RAW264.7. In words: Anti-inflammatory activity against LPS-activated mouse RAW264.7 cells assessed as reduction of NFkappaB p52 gene expression at 7.5 to 30 uM pretreated for 1 hr followed by incubation with LPS for 24 hrs by qRT-PCR analysis. It is filed as functional, cell-based. Conditions: dose 7.5-30 µM, time 25.0 hrs.
The subject of data set [7] is RAW264.7. In words: Downregulation of NF-kappaB expression in LPS-activated mouse RAW264.7 cells at 7.5 to 30 uM pretreated for 1 hr followed by incubation with LPS for 24 hrs by western blot analysis. It is filed as functional, cell-based. The following applies: dose 7.5-30 µM, time 25.0 hrs.
Data set [8] deals with RAW264.7. In words: Anti-inflammatory activity against LPS-activated mouse RAW264.7 cells assessed as reduction of IL-6 gene expression at 7.5 to 30 uM pretreated for 1 hr followed by incubation with LPS for 24 hrs by qRT-PCR analysis. Format: functional, cell-based. Conditions: dose 7.5-30 µM, time 25.0 hrs.
Data set [9] concerns RAW264.7. In words: Anti-inflammatory activity against mouse RAW264.7 cells assessed as inhibition of LPS-induced ROS production at 15 to 60 uM pretreated for 1 hr followed by incubation with LPS for 24 hrs by DCFH-DA staining based flow cytometry. The following applies: dose 15-60 µM, time 25.0 hrs. It is filed as functional, cell-based.
The test system of data set [10] is RAW264.7. The experiment in a line: Anti-inflammatory activity against mouse RAW264.7 cells assessed as inhibition of LPS-induced NO production pretreated for 1 hr followed by incubation with LPS and measured after 24 hrs by Griess reagent based analysis. It is filed as functional, cell-based.
For data set [11], the system named is RAW264.7. In words: Inhibition of NF-kappaB in mouse RAW264.7 cells assessed as inhibition of LPS-induced NF-kappaB p65 nuclear translocation at 15 to 60 uM pretreated for 1 hr followed by incubation with LPS for 24 hrs by immunofluorescence analysis. It is filed as cell-based. Conditions: dose 15-60 µM, time 25.0 hrs.
Data set [12] concerns RAW264.7. The experiment in a line: Anti-inflammatory activity against LPS-activated mouse RAW264.7 cells assessed as reduction of IL-1 beta gene expression at 7.5 to 30 uM pretreated for 1 hr followed by incubation with LPS for 24 hrs by qRT-PCR analysis. It is filed as functional, cell-based. The following applies: dose 7.5-30 µM, time 25.0 hrs.

The source made the active and inactive calls. The rule behind the calls is not given here.

`COc1cc(O)c2c(c1O)[C@H](O)[C@H]1C[C@](C)(O)C[C@@H](O)[C@@H]1C2=O`: in the data set on RAW264.7 [1], the Activity result is “Toxic”.

For `COc1cc(O)c2c(c1O)[C@H](OC)[C@H]1C[C@](C)(O)[C@H](O)[C@@H](O)[C@@H]1C2=O`, the outcome in the data set with RAW264.7 [2] was Active.

On to `COc1cc(O)c2c(c1O)[C@H](OC)[C@H]1C[C@](C)(O)[C@H](O)[C@@H](O)[C@H]1C2=O`, for which the Activity result with RAW264.7 [1] is given as “Toxic”.

Take `COc1cc(O)c2c(c1O)[C@H]1O[C@]3(C)C[C@H]1[C@@H](C[C@@H]3O)C2=O`: the Activity result in the data set on RAW264.7 [1] was “Toxic”.

As for `COc1cc(O)c2c(c1O)[C@H](OC)[C@H]1C[C@](C)(O)[C@H](O)C[C@@H]1C2=O`, the outcome in the data set with RAW264.7 [2] was Active.

Take `C[C@]1(O)C[C@@]2(O)[C@H](C[C@H]1O)C(=O)c1c(O)ccc(O)c1[C@@H]2O`: in the data set with RAW264.7 [2], the result was Active.

For `COc1cc(O)c2c(c1O)C(O)C1C[C@](C)(O)[C@H](O)CC1C2=O` (stereo partly drawn), in the data set on RAW264.7 [1], the Activity result is “Toxic”.

On to `COc1cc(O)c2c(c1O)[C@H](O)[C@H]1C[C@](C)(O)[C@H](O)C[C@H]1C2=O`, for which the result in the data set on RAW264.7 [2] was Active.

On to `COc1cc(O)c2c(c1O)[C@H](O)[C@H]1C[C@](C)(O)[C@H](O)[C@@H](O)[C@@H]1C2=O` [9ALPHA-HYDROXYHALOROSELLINIA A], for which, in the data set with RAW264.7 [1], the Activity result is reported as “Toxic”.

With `COc1cc(O)c2c(c1O)[C@@H](OC)[C@H]1C[C@](C)(O)[C@H](O)C[C@@H]1C2=O`, the result in the data set on RAW264.7 [2] was Active.

Regarding `COc1cc(O)c2c(c1O)C(=O)[C@H]1C[C@](C)(O)[C@H](O)[C@@H](O)[C@@H]1C2=O`, in the data set on RAW264.7 [2], the result was Active.

Consider `COc1cc(O)c2c(c1N)C(=O)C1=C(C[C@@H](O)[C@@](C)(O)C1)C2=O`, for which, in the data set with RAW264.7 [2], the result was Active.

On to `COC1=CC(=O)c2c(cc3c(c2O)[C@H](O)[C@@H](O)[C@@](C)(O)C3)C1=O`, for which, in the data set on RAW264.7 [1], the Activity result was “Toxic”. Also, in the data set on SW-620, the IC50 (commonly the concentration at which inhibition is half-maximal) was found to be 13.7 µM.

`COc1cc(O)c2c(c1O)[C@@H](OC)[C@H]1C[C@](C)(O)[C@H](O)[C@@H](O)[C@@H]1C2=O`: the outcome in the data set with RAW264.7 [2] was Active.

For the molecule `COc1cc(O)c2c(c1O)[C@H](O)[C@H]1C[C@](C)(O)[C@H](O)[C@@H](O)[C@H]1C2=O`, the result in the data set filed under Danio rerio, in the data set with RAW264.7 [3], with RAW264.7 [4], in the data set on RAW264.7 [6], with RAW264.7 [8] and with RAW264.7 [9] was Active. The result with RAW264.7 [2] and in the data set on RAW264.7 [12] was Active. The inhibition entry in the data set with RAW264.7 [5], in the data set on RAW264.7 [7] and in the data set on RAW264.7 [11] was “Active” throughout. Further, the IC50 with RAW264.7 [10] was determined as 7.5 µM.

Regarding `COc1cc(O)c2c(c1O)C(=O)C1=C(C[C@@H](O)[C@@](C)(O)C1)C2=O`, in the data set on RAW264.7 [1], the Activity result is recorded as “Toxic”.
